{"source": "the supplement of paper PMC10307832", "data": [{"compound": "Cc1nc(NC(=O)N2CCC[C@H]2C(N)=O)sc1-c1ccnc(C(C)(C)C(F)(F)F)c1 [Alpelisib] + Cc1cc(Nc2cc(N3CCN(C)CC3)nc(Sc3ccc(NC(=O)C4CC4)cc3)n2)n[nH]1 [Tozasertib] (partner 0.1 µM)", "assay": "relative viability (nuclei count vs DMSO), 5 days (fraction); higher = more cells survive", "details": "first compound 0.04 µM", "outline": "(§1)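 Lung cancer cell lines, seeded in 1536-well plates, were treated the following day by pin tool with a single drug or with five library-drug doses (not always all listed) in √10 steps on top of a fixed anchor-drug dose. Cells were fixed and nuclei stained in one step after 5 days, and nuclei were counted. Relative viability is the nuclei count for treated wells divided by that for vehicle wells, reported as medians of duplicate plates.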", "values": [{"cell line": "LK-2", "relative viability": 0.158}, {"cell line": "NCI-H2405", "relative viability": 0.725}, {"cell line": "NCI-H1993", "relative viability": 0.621}, {"cell line": "ChaGo-K-1", "relative viability": 0.202}, {"cell line": "NCI-H1355", "relative viability": 0.539}, {"cell line": "NCI-H1915", "relative viability": 0.421}, {"cell line": "NCI-H838", "relative viability": 0.279}, {"cell line": "A-427", "relative viability": 0.225}, {"cell line": "NCI-H2009", "relative viability": 0.729}, {"cell line": "ABC-1", "relative viability": 0.175}, {"cell line": "EKVX", "relative viability": 0.346}, {"cell line": "NCI-H2087", "relative viability": 0.256}, {"cell line": "NCI-H1734", "relative viability": 0.289}, {"cell line": "LCLC-103H", "relative viability": 0.462}, {"cell line": "LU99A", "relative viability": 0.283}, {"cell line": "NCI-H460", "relative viability": 0.153}, {"cell line": "NCI-H2170", "relative viability": 0.637}, {"cell line": "SK-LU-1", "relative viability": 0.347}, {"cell line": "COR-L23", "relative viability": 0.205}, {"cell line": "HCC-15", "relative viability": 0.352}, {"cell line": "NCI-H1944", "relative viability": 0.251}, {"cell line": "EMC-BAC-2", "relative viability": 0.294}, {"cell line": "LC-2-ad", "relative viability": 0.377}]}, {"compound": "Cc1nc(NC(=O)N2CCC[C@H]2C(N)=O)sc1-c1ccnc(C(C)(C)C(F)(F)F)c1 [Alpelisib] + Cc1cc(Nc2cc(N3CCN(C)CC3)nc(Sc3ccc(NC(=O)C4CC4)cc3)n2)n[nH]1 [Tozasertib] (partner 0.1 µM)", "assay": "relative viability (nuclei count vs DMSO), 5 days (fraction); higher = more cells survive", "details": "first compound 0.1265 µM", "outline": "as §1", "values": [{"cell line": "H3255", "relative viability": 0.683}, {"cell line": "NCI-H1975", "relative viability": 0.655}, {"cell line": "PC-14", "relative viability": 0.612}, {"cell line": "NCI-H1437", "relative viability": 0.394}, {"cell line": "HOP-62", "relative viability": 0.374}, {"cell line": "BEN", "relative viability": 0.443}, {"cell line": "LOU-NH91", "relative viability": 0.643}, {"cell line": "NCI-H661", "relative viability": 0.362}, {"cell line": "NCI-H1651", "relative viability": 0.651}, {"cell line": "PC-3 [JPC-3]", "relative viability": 0.873}, {"cell line": "SW 1573", "relative viability": 0.149}, {"cell line": "LK-2", "relative viability": 0.164}, {"cell line": "NCI-H2405", "relative viability": 0.68}, {"cell line": "NCI-H1993", "relative viability": 0.505}, {"cell line": "ChaGo-K-1", "relative viability": 0.202}, {"cell line": "NCI-H1355", "relative viability": 0.489}, {"cell line": "NCI-H1915", "relative viability": 0.381}, {"cell line": "NCI-H838", "relative viability": 0.25}, {"cell line": "A-427", "relative viability": 0.196}, {"cell line": "NCI-H2009", "relative viability": 0.708}, {"cell line": "ABC-1", "relative viability": 0.157}, {"cell line": "EKVX", "relative viability": 0.308}, {"cell line": "NCI-H2087", "relative viability": 0.294}, {"cell line": "LCLC-103H", "relative viability": 0.448}, {"cell line": "LU99A", "relative viability": 0.26}, {"cell line": "NCI-H460", "relative viability": 0.44}, {"cell line": "NCI-H2170", "relative viability": 0.727}, {"cell line": "SK-LU-1", "relative viability": 0.289}, {"cell line": "COR-L23", "relative viability": 0.208}, {"cell line": "HCC-15", "relative viability": 0.373}, {"cell line": "NCI-H1944", "relative viability": 0.226}, {"cell line": "EMC-BAC-2", "relative viability": 0.255}, {"cell line": "LC-2-ad", "relative viability": 0.372}]}, {"compound": "Cc1nc(NC(=O)N2CCC[C@H]2C(N)=O)sc1-c1ccnc(C(C)(C)C(F)(F)F)c1 [Alpelisib] + Cc1cc(Nc2cc(N3CCN(C)CC3)nc(Sc3ccc(NC(=O)C4CC4)cc3)n2)n[nH]1 [Tozasertib] (partner 0.1 µM)", "assay": "relative viability (nuclei count vs DMSO), 5 days (fraction); higher = more cells survive", "details": "first compound 0.4 µM", "outline": "as §1", "values": [{"cell line": "H3255", "relative viability": 0.767}, {"cell line": "NCI-H1975", "relative viability": 0.755}, {"cell line": "PC-14", "relative viability": 0.655}, {"cell line": "NCI-H1437", "relative viability": 0.417}, {"cell line": "HOP-62", "relative viability": 0.465}, {"cell line": "BEN", "relative viability": 0.571}, {"cell line": "LOU-NH91", "relative viability": 0.656}, {"cell line": "NCI-H661", "relative viability": 0.348}, {"cell line": "NCI-H1651", "relative viability": 0.708}, {"cell line": "PC-3 [JPC-3]", "relative viability": 0.968}, {"cell line": "SW 1573", "relative viability": 0.175}, {"cell line": "LK-2", "relative viability": 0.179}, {"cell line": "NCI-H2405", "relative viability": 0.825}, {"cell line": "NCI-H1993", "relative viability": 0.542}, {"cell line": "ChaGo-K-1", "relative viability": 0.211}, {"cell line": "NCI-H1355", "relative viability": 0.528}, {"cell line": "NCI-H1915", "relative viability": 0.491}, {"cell line": "NCI-H838", "relative viability": 0.277}, {"cell line": "A-427", "relative viability": 0.244}, {"cell line": "NCI-H2009", "relative viability": 0.768}, {"cell line": "ABC-1", "relative viability": 0.155}, {"cell line": "EKVX", "relative viability": 0.499}, {"cell line": "NCI-H2087", "relative viability": 0.305}, {"cell line": "NCI-H1734", "relative viability": 0.299}, {"cell line": "LCLC-103H", "relative viability": 0.482}, {"cell line": "LU99A", "relative viability": 0.308}, {"cell line": "NCI-H460", "relative viability": 0.563}, {"cell line": "NCI-H2170", "relative viability": 0.771}, {"cell line": "SK-LU-1", "relative viability": 0.372}, {"cell line": "COR-L23", "relative viability": 0.218}, {"cell line": "HCC-15", "relative viability": 0.487}, {"cell line": "NCI-H1944", "relative viability": 0.267}, {"cell line": "EMC-BAC-2", "relative viability": 0.307}, {"cell line": "LC-2-ad", "relative viability": 0.431}]}, {"compound": "Cc1nc(NC(=O)N2CCC[C@H]2C(N)=O)sc1-c1ccnc(C(C)(C)C(F)(F)F)c1 [Alpelisib] + Cc1cc(Nc2cc(N3CCN(C)CC3)nc(Sc3ccc(NC(=O)C4CC4)cc3)n2)n[nH]1 [Tozasertib] (partner 0.1 µM)", "assay": "relative viability (nuclei count vs DMSO), 5 days (fraction); higher = more cells survive", "details": "first compound 1.265 µM", "outline": "as §1", "values": [{"cell line": "H3255", "relative viability": 0.431}, {"cell line": "NCI-H1975", "relative viability": 0.542}, {"cell line": "PC-14", "relative viability": 0.44}, {"cell line": "NCI-H1437", "relative viability": 0.336}, {"cell line": "HOP-62", "relative viability": 0.322}, {"cell line": "BEN", "relative viability": 0.521}, {"cell line": "LOU-NH91", "relative viability": 0.563}, {"cell line": "NCI-H661", "relative viability": 0.337}, {"cell line": "NCI-H1651", "relative viability": 0.653}, {"cell line": "PC-3 [JPC-3]", "relative viability": 0.84}, {"cell line": "SW 1573", "relative viability": 0.151}, {"cell line": "LK-2", "relative viability": 0.167}, {"cell line": "NCI-H2405", "relative viability": 0.682}, {"cell line": "NCI-H1993", "relative viability": 0.511}, {"cell line": "ChaGo-K-1", "relative viability": 0.194}, {"cell line": "NCI-H1355", "relative viability": 0.441}, {"cell line": "NCI-H1915", "relative viability": 0.387}, {"cell line": "NCI-H838", "relative viability": 0.215}, {"cell line": "A-427", "relative viability": 0.198}, {"cell line": "NCI-H2009", "relative viability": 0.696}, {"cell line": "ABC-1", "relative viability": 0.195}, {"cell line": "EKVX", "relative viability": 0.333}, {"cell line": "NCI-H2087", "relative viability": 0.218}, {"cell line": "NCI-H1734", "relative viability": 0.224}, {"cell line": "LCLC-103H", "relative viability": 0.357}, {"cell line": "LU99A", "relative viability": 0.259}, {"cell line": "NCI-H460", "relative viability": 0.181}, {"cell line": "NCI-H2170", "relative viability": 0.625}, {"cell line": "SK-LU-1", "relative viability": 0.256}, {"cell line": "COR-L23", "relative viability": 0.19}, {"cell line": "HCC-15", "relative viability": 0.336}, {"cell line": "NCI-H1944", "relative viability": 0.218}, {"cell line": "EMC-BAC-2", "relative viability": 0.242}, {"cell line": "LC-2-ad", "relative viability": 0.307}]}, {"compound": "Cc1nc(NC(=O)N2CCC[C@H]2C(N)=O)sc1-c1ccnc(C(C)(C)C(F)(F)F)c1 [Alpelisib] + Cc1cc(Nc2cc(N3CCN(C)CC3)nc(Sc3ccc(NC(=O)C4CC4)cc3)n2)n[nH]1 [Tozasertib] (partner 0.1 µM)", "assay": "relative viability (nuclei count vs DMSO), 5 days (fraction); higher = more cells survive", "details": "first compound 4 µM", "outline": "as §1", "values": [{"cell line": "H3255", "relative viability": 0.438}, {"cell line": "NCI-H1975", "relative viability": 0.29}, {"cell line": "PC-14", "relative viability": 0.543}, {"cell line": "NCI-H1437", "relative viability": 0.306}, {"cell line": "HOP-62", "relative viability": 0.292}, {"cell line": "BEN", "relative viability": 0.484}, {"cell line": "LOU-NH91", "relative viability": 0.443}, {"cell line": "NCI-H661", "relative viability": 0.323}, {"cell line": "NCI-H1651", "relative viability": 0.607}, {"cell line": "PC-3 [JPC-3]", "relative viability": 0.806}, {"cell line": "SW 1573", "relative viability": 0.166}, {"cell line": "LK-2", "relative viability": 0.154}, {"cell line": "NCI-H2405", "relative viability": 0.625}, {"cell line": "NCI-H1993", "relative viability": 0.515}, {"cell line": "ChaGo-K-1", "relative viability": 0.197}, {"cell line": "NCI-H1355", "relative viability": 0.373}, {"cell line": "NCI-H1915", "relative viability": 0.392}, {"cell line": "NCI-H838", "relative viability": 0.247}, {"cell line": "A-427", "relative viability": 0.194}, {"cell line": "NCI-H2009", "relative viability": 0.752}, {"cell line": "ABC-1", "relative viability": 0.188}, {"cell line": "EKVX", "relative viability": 0.198}, {"cell line": "NCI-H2087", "relative viability": 0.167}, {"cell line": "NCI-H1734", "relative viability": 0.205}, {"cell line": "LCLC-103H", "relative viability": 0.37}, {"cell line": "LU99A", "relative viability": 0.23}, {"cell line": "NCI-H460", "relative viability": 0.241}, {"cell line": "NCI-H2170", "relative viability": 0.298}, {"cell line": "SK-LU-1", "relative viability": 0.216}, {"cell line": "COR-L23", "relative viability": 0.13}, {"cell line": "HCC-15", "relative viability": 0.263}, {"cell line": "NCI-H1944", "relative viability": 0.171}, {"cell line": "EMC-BAC-2", "relative viability": 0.242}, {"cell line": "LC-2-ad", "relative viability": 0.348}]}]}
